Values belong to the compound of their own block, whether it stands above or below them.
How the values were obtained:
[1] = Stability of the cosmetic composition during accelerated storage at room temperature (HPLC content of the combination's components); type: physicochemical; details: for Prostaglandin F2 content, % (as % to the initial one): +25-27° C., measurement error 5%; for Stability / content in the cosmetic composition during accelerated storage (in words): room temperature, 20 degrees above the recommended +4 to +8° C.
Procedure: The cosmetic composition for stimulation of hair growth (example of composition 1 according to the invention, see above) was held at +25-27° C. for 2 months. Samples were taken every week and analyzed for the content of the components of the combination by HPLC. To prepare a sample for analysis, 1 g of gel was taken from the cosmetic composition into a round-bottom glass centrifuge tube and 2 g of distilled ethyl acetate were added. The mixture was shaken on a Multi-Vortex V32 until the liquids were completely mixed for 3 min. The resulting suspension was centrifuged for 5 min at 6000 rpm for complete separation of the layers. The upper layer (ethyl acetate layer) was carefully removed with a glass pipette and transferred to a conical-bottom flask (V25 mL). Another 2 g of distilled ethyl acetate were added to the solution remaining in the test tube, and the extraction procedure was repeated once again. The upper layer (ethyl acetate layer) was carefully removed with a glass pipette and added to the previously collected solution. The organic layer was evaporated on a rotary evaporator and dried in an oil pump vacuum. The residue was dissolved in ethanol to obtain a solution with an ethanol concentration of 26 mg/100 μL. The extract was analyzed by microcolumn reversed-phase HPLC in an acetonitrile-water gradient system (linear gradient, 5→100% acetonitrile). The components of the combination of the invention were identified by comparison with reference standards. The quantity of each component was estimated by the signal area in the chromatogram.

[2] = test system: scalp hair growth; details: 0.1% latanoprost applied to the scalp, after 24 weeks; cited from earlier work

Prostaglandin F2 content, % (as % to the initial one) ([1]; hold time 0 weeks, cosmetic composition for stimulation of hair growth): 100%
Prostaglandin F2 content, % (as % to the initial one) ([1]; hold time 1 week): 100%
Prostaglandin F2 content, % (as % to the initial one) ([1]; hold time 2 weeks): 100%
Prostaglandin F2 content, % (as % to the initial one) ([1]; hold time 3 weeks): 99%
Prostaglandin F2 content, % (as % to the initial one) ([1]; hold time 4 weeks): 99%
Prostaglandin F2 content, % (as % to the initial one) ([1]; hold time 5 weeks): 98%
Prostaglandin F2 content, % (as % to the initial one) ([1]; hold time 6 weeks): 98%
Stability / content in the cosmetic composition during accelerated storage (in words) [1]: decreases very slowly
Compound: CCCCC[C@H](O)/C=C/[C@@H]1[C@@H](C/C=C\CCCC(=O)N[C@H](CO)C(=O)OC(C)C)[C@@H](O)C[C@H]1O [modified prostaglandin F2]

Compound: CC(C)OC(=O)CCC/C=C\C[C@@H]1[C@@H](CC[C@@H](O)CCc2ccccc2)[C@H](O)C[C@@H]1O [latanoprost]
Hair density (terminal and vellus hair) [2]: significant increase in hair density

Compound: CCCCC[C@H](O)/C=C/[C@H]1[C@H](O)CC(=O)[C@@H]1C/C=C\CCCC(=O)OC(CO[N+](=O)[O-])CO[N+](=O)[O-] [(Z)-1,3-bis(nitroxy)propanyl-2-7-((1R,2R,3R)-3-hydroxy-2-((S,E)-3-hydroxyoctene-1-yl-1)-5-oxocyclopentenyl)-5-heptenoate]
Stability / content in the cosmetic composition during accelerated storage (in words) [1]: decreases over time

Compound: CCCCC[C@H](O)/C=C/[C@H]1[C@H](O)CC(=O)[C@@H]1CCCCCCC(=O)OC(CO[N+](=O)[O-])CO[N+](=O)[O-] [E1, (Z)-1,3-bis(nitroxy)propan-2-yl-7-((1R,2R,3R)-3-hydroxy-2-((S,E)-3-hydroxyoct-1-en-1-yl)-5-xocyclopentyl)heptanoate]
Stability / content in the cosmetic composition during accelerated storage (in words) [1]: decreases over time
